Measured values reported in US9975860B2, “Anti-angiogenic compounds” (UNIVERSITY COLLEGE DUBLIN—NATIONAL UNIVERSITY OF IRELAND, …, priority 2014, dated 2018).

What was measured:
Assay type in all cases: cell-based, human
[1] = tested on: MLH1; assay: qPCR DNA repair gene expression in HT29-LUC: MLH1; details: 10 μM, 24 hours, p<0.01
Protocol: (§1) HT29-LUC radioresistant colorectal adenocarcinoma cells were used to test the effects of the compound 4 on DNA repair gene expression. Cells were maintained in McCoy's 5A media supplemented with 10% foetal calf serum. A total of 300,000 cells, in 2 ml media, were seeded per well in 6 well plates and left to incubate for 24 hours. The media was replaced with solutions containing 10 μM of compound 4 or the equivalent volume of DMSO vehicle control. After 24 hours of treatment, RNA was extracted from the cells and converted to cDNA. qPCR was then conducted.

[2] = tested on: PARP1; assay: qPCR DNA repair gene expression in OE33P: PARP1; details: 10 μM, 24 hours
Protocol: as §1, with “OE33P radiosensitive oesophageal adenocarcinoma cells and OE33R” for “HT29-LUC”, “oesophageal” for “colorectal”, “RPMI” for “McCoy's 5A”, “serum, penicillin (100 U/ml) and streptomycin (100 μg/ml).” for “serum.”, “conducted and expression of MMS19, SMUG1 PARP1 and MLH1 was quantified, […]” for “conducted.”

[3] = tested on: MMS19; assay: qPCR DNA repair gene expression in OE33R: MMS19; details: 10 μM, 24 hours
Protocol: as §1, with “OE33P radiosensitive oesophageal adenocarcinoma cells and OE33R” for “HT29-LUC”, “oesophageal” for “colorectal”, “RPMI” for “McCoy's 5A”, “serum, penicillin (100 U/ml) and streptomycin (100 μg/ml).” for “serum.”, “conducted and expression of MMS19, SMUG1 PARP1 and MLH1 was quantified, […]” for “conducted.”

## Cl.Oc1ccccc1/C=C/c1cnccn1 [Compound 4, (E)-2-[2-(Pyrazin-2-yl)vinyl]phenol hydrochloride]
[1]
  expression of MLH1 (qPCR): significantly reduces the expression of MLH1
[2]
  expression of PARP1 (qPCR): not significantly different to control
[3]
  expression of MMS19 (qPCR): not significantly different to control
